Assay results reported in patent publication US7781186B2, “Screening methods using normal human liver cell line” (The United States of America as represented by the …, priority 2000, dated 2010).

How the values were obtained:
HepG2 cells = type: cell-based, human
Text: (§1) The cell line of the invention can further be used in a method for assessing toxicity of chemicals or drugs using methods known in the art. For example, lactate dehydrogenase (LDH) leakage from cells into the culture medium is an established method to assess cell injury. Enzyme activity in the culture medium following exposure of cells to a chemical for a certain time will be expressed as percentage of the total of intra- and extracellular enzyme activity. Another example is the determination of cytochrome c release from mitochondria into the cytosol, which is a measure of mitochondria-mediated induction of lethal cell injury. Cells can be exposed to various concentrations of a chemical for various time points. The cells can then be harvested, homogenized, and mitochondria and cytosol isolated by differential centrifugation. The subcellular fractions can then be lysed, loaded onto SDS-PAGE gels, and probed with a specific antibody against cytochrome c.
To determine whether HC04 cells would respond to a standard hepatotoxicant in vitro, the concentration- and time-dependent toxicity of acetaminophen (APAP) was assessed and compared to that in HepG2 cells.

mitochondria = assay: mPT-mediated cytochrome c release from mitochondria; type: biochemical
Text: as §1
Both LEF and A77-1726 attenuated the ΔΨm (at ≧1 uM).

[1] = system: mitochondrial permeability transition pore; assay: Membrane permeability transition (mPT), large amplitude swelling at 540 nm, isolated liver mitochondria; type: biochemical, mouse
Procedure: To explore whether LEF (the prodrug) or its active metabolite A77-1726 alter mitochondrial function including the Ca^2+ dependent, cyclosporine A-sensitive mPT, we isolated mouse liver mitochondria and exposed them to LEF or A77-1726, and measured the concentration-dependent effects on the mitochondrial inner transmembrane potential (ΔΨm) using the cationic fluorescent probe, JC-1. Furthermore, the effects on the inductin of the mPT were assessed by monitoring large amplitude swelling at 540 nm. In addition, the effects of LEF were determined in cultured immortalized human hepatocytes (HC04 cell line).

mouse liver mitochondria = assay: Mitochondrial inner transmembrane potential (ΔΨm), JC-1 probe, isolated liver mitochondria; type: biochemical; conditions: in vitro
Procedure: To explore whether LEF (the prodrug) or its active metabolite […]-1726 alter mitochondrial function including the Ca^2+ dependent, cyclosporine A-sensitive mPT, we isolated mouse liver mitochondria and exposed them to LEF or […]-1726, and measured the concentration-dependent effects on the mitochondrial inner transmembrane potential (ΔΨm) using the cationic fluorescent probe, JC-1. Furthermore, the effects on the inductin of the mPT were assessed by monitoring large amplitude swelling at 540 nm.

HC04 cell line = assay: Acetaminophen-induced mPT-associated cytotoxicity in cultured immortalized human hepatocytes; type: cell-based
Procedure: Furthermore, the effects on the inductin of the mPT were assessed by monitoring large amplitude swelling at 540 nm. In addition, the effects of LEF were determined in cultured immortalized human hepatocytes (HC04 cell line).

| Structure (SMILES) | LDH release (indicative of cell injury) (HepG2 cells) | protection from mPT-mediated cytochrome c release from mitochondria (mitochondria) | inhibition of the mPT (summary) ([1]; in vitro) | protection from the mPT ([1]; mPT caused by KH2PO4 (2 mM)) | protection from the mPT ([1]; mPT caused by nimesulide (30 uM)) | uncoupling (summary) (mouse liver mitochondria) | protection from acetaminophen-induced mPT-associated cytotoxicity (HC04 cell line) |
| --- | --- | --- | --- | --- | --- | --- | --- |
| CC(=O)Nc1ccc(O)cc1 [APAP, acetaminophen] | did not respond | – | – | – | – | – | – |
| Cc1oncc1C(=O)Nc1ccc(C(F)(F)F)cc1 [LEF, Leflunomide] | – | protected | potent inhibitors | completely protected | completely protected | weak uncouplers | completely protected |
